Data from patent publication US20240124409A1, “GUAIANOLIDE SESQUITERPENE LACTONE DERIVATIVES AND PHARMACEUTICAL USE THEREOF” (NANJING UNIVERSITY OF CHINESE MEDICINE, priority 2021, published 2024).

What was measured:
[1] = tested on: DSS-induced UC model mice; experiment: Anti-ulcerative colitis activity, DSS mouse colitis model; assay type: in vivo, C57BL/6 mice; set-up: key to DAI score: DAI = (weight loss + stool + occult blood scores)/3; conditions: for MPO activity in colon tissue / Colon length: 10 days
Protocol: Except for the normal group, the other mice were free to drink 2.5% DSS for 7 days, which was then replaced to distilled water to be drunk freely for 3 days to establish the UC model. […] The mice in the normal group and model groups were administered intragastrically the same volume of the solvent 0.5% CMC-Na.
The general living conditions of the mice in each group were observed and the disease activity indexs (DAI) were evaluated. The daily specific observation indicator was weight, stool property and occult blood state of mice, and then the scores of the weight loss, stool property and occult blood state were added to determine the average value, so as to obtain the DAI score of each mouse, that is, DAI=(weight loss score+stool property score+occult blood state score)/3, to evaluate the disease activity.
Test method of occult blood: Using o-toluidine method, a little feces was picked up into a 24-well culture plate with a cotton swab, into which was first added 200 μL of the solution of o-toluidine glacial acetic acid, and then quickly added 200 μL of 3% hydrogen peroxide solution. Those turned blue-brown within 2 minutes were positive.
1 h after the last administration, blood was collected from the venous plexus of fundus oculi, stood at room temperature for 2 h, and centrifuged at 3000 rpm for 20 min. The serum was aspirated, aliquoted, and frozen at −70° C. for subsequent use. After the blood collection, the mice were sacrificed by cervical dislocation, and the abdominal cavity was opened. The colon tissues were removed 1 cm away from the anus, rinsed twice with pre-cooled PBS, and frozen at −70° C. for subsequent use.
The shortening of colon length is one of the main characteristics of DSS-induced UC model mice. After dissecting the abdominal cavity of the UC mice, the colon and distal ileum tissues were dissociated. The external morphological changes of the colon tissues were observed, the colon length was measured and recorded, and the photos were taken.
40 mg of colon tissues of the mice in each group was taken, into which was added 400 μL of pre-cooled normal saline to prepare tissue homogenates. After centrifugation at 4° C. and 1200 rpm for 5 min, the supernatants were collected. According to the method described in the kit instructions, various reagents were added sequentially, and finally the absorbance value of each well was determined at the wavelength of 460 nm of the microplate reader to calculate the MPO activity.
MPO activity (U/g wet weight)=(OD value of test tube−OD value of control tube)/11.3×sampling amount(g)

[2] = tested on: chronic kidney injury models by the unilateral ureteral obstruction method; experiment: Mouse chronic kidney injury model (unilateral ureteral obstruction); assay type: in vivo, C57BL/6 mice; conditions: for BUN (urea level in serum) / Scr (creatinine level in serum): 14 days; for BUN (urea level in serum): in mmol/L (unit assumed); for Scr (creatinine level in serum): in µmol/L (unit assumed); for Col1a1 mRNA expression / Havcr1 mRNA expression / Il1 mRNA expression / Il6 mRNA expression / Ngal mRNA expression / Tgfb1 mRNA expression / Tnf mRNA expression / α-Sma mRNA expression: kidney
From the text: Chronic kidney injury: The mice were randomly divided into 7 groups, one of which was randomly selected as the normal group, and the other 6 groups were the model group, the parent drug 1 (0.4 and 4 μmol/kg), the hydrochloride 22 (4 μmol/kg), and the fumarate 23 (0.4 and 4 μmol/kg) groups, respectively, with 6 mice in each group. In addition to mice in the normal group that had sham operations (i.e., there was no other operations, but only the left ureter was exposed), the other mice were established chronic kidney injury models by the unilateral ureteral obstruction method. Specifically, the abdominal skin was sterilized with iodophor and alcohol in sequence, and the abdominal skin was cut and separated layer by layer. After fully exposing and separating the left ureter, double obstruction was performed at the proximal bladder end of the ureter with a digestible suture line, followed by suture. On the first day of model establishment, the parent drug 1 (0.4 and 4 μmol/kg), the hydrochloride 22 (4 μmol/kg) and the fumarate 23 (0.4 and 4 μmol/kg) were administered intragastrically for 14 consecutive days. The mice in the normal group and model group were administered intragastrically the same volume of the solvent 0.5% CMC-Na.
1 h after the last administration, blood was collected from the venous plexus of fundus oculi, stood at room temperature for 2 h, and centrifuged at 3000 rpm for 20 min. The serum was aspirated, aliquoted, and frozen at −70° C. for subsequent use. After blood collection, the mice were sacrificed by cervical dislocation, and the abdominal cavity was opened. The kidneys were taken out, rinsed twice with pre-cooled PBS after the perirenal fats and capsules were peeled off, and then fixed with 4% paraformaldehyde for 24-48 h, embedded in paraffin and stained with HE. The remaining tissues were frozen at −70° C. for subsequent use.
μL serum was taken from each sample for the detection of creatinine and urea levels. Samples were added in accordance with the instructions of the kit strictly. After incubation at 37° C., the absorbance value was measured in a microplate reader, and the content levels of detection indicators in each group were calculated according to the standard curve.
The extraction of total RNA from animal tissues, cDNA synthesis and PCR amplification are as in above examples.

## C=C1C(=O)O[C@@H]2[C@@H]3[C@]4(CC[C@@]3(C)O)C[C@]4(C)CC[C@@H]12 [Compound 1]
[1]; 20 nmol/kg i.g.
  MPO activity in colon tissue: 1.40 ± 0.31 U/g tissue
[1]; 20 nmol/kg/d i.g.
  Colon length: 6.15 ± 0.35 cm
[1]; 40 nmol/kg i.g.
  MPO activity in colon tissue: 1.08 ± 0.12 U/g tissue
[1]; 40 nmol/kg/d i.g.
  Colon length: 6.78 ± 0.28 cm
[1]; day 1, 20 nmol/kg i.g.
  DAI score: 0.00 ± 0.00
[1]; day 1, 40 nmol/kg i.g.
  DAI score: 0.00 ± 0.00
[1]; day 2, 20 nmol/kg i.g.
  DAI score: 0.33 ± 0.14
[1]; day 2, 40 nmol/kg i.g.
  DAI score: 0.33 ± 0.19
[1]; day 3, 20 nmol/kg i.g.
  DAI score: 0.75 ± 0.28
[1]; day 3, 40 nmol/kg i.g.
  DAI score: 0.58 ± 0.21
[1]; day 4, 20 nmol/kg i.g.
  DAI score: 1.08 ± 0.37
[1]; day 4, 40 nmol/kg i.g.
  DAI score: 1.00 ± 0.19
[1]; day 5, 20 nmol/kg i.g.
  DAI score: 1.75 ± 0.50
[1]; day 5, 40 nmol/kg i.g.
  DAI score: 1.25 ± 0.34
[1]; day 6, 20 nmol/kg i.g.
  DAI score: 2.25 ± 0.44
[1]; day 6, 40 nmol/kg i.g.
  DAI score: 1.67 ± 0.36
[1]; day 7, 20 nmol/kg i.g.
  DAI score: 2.50 ± 0.17
[1]; day 7, 40 nmol/kg i.g.
  DAI score: 1.83 ± 0.44
[1]; day 8, 20 nmol/kg i.g.
  DAI score: 2.75 ± 0.39
[1]; day 8, 40 nmol/kg i.g.
  DAI score: 1.92 ± 0.50
[1]; day 9, 20 nmol/kg i.g.
  DAI score: 1.83 ± 0.17
[1]; day 9, 40 nmol/kg i.g.
  DAI score: 1.17 ± 0.32
[1]; day 10, 20 nmol/kg i.g.
  DAI score: 1.25 ± 0.16
[1]; day 10, 40 nmol/kg i.g.
  DAI score: 0.50 ± 0.22
[2]; 0.4 μmol/kg i.g.
  BUN (urea level in serum): 18.41
  Scr (creatinine level in serum): 176.35
[2]; 4 μmol/kg i.g.
  BUN (urea level in serum): 11.01
  Scr (creatinine level in serum): 104.65
[2]; 0.4 μmol/kg
  Col1a1 mRNA expression: 16.09
  Havcr1 mRNA expression: 12.56
  Il1 mRNA expression: 6.05
  Il6 mRNA expression: 16.52
  Ngal mRNA expression: 37.82
  Tgfb1 mRNA expression: 2.04
  Tnf mRNA expression: 6.41
  α-Sma mRNA expression: 2.32
[2]; 4 μmol/kg
  Col1a1 mRNA expression: 9.45
  Havcr1 mRNA expression: 8.54
  Il1 mRNA expression: 3.99
  Il6 mRNA expression: 6.50
  Ngal mRNA expression: 21.66
  Tgfb1 mRNA expression: 1.55
  Tnf mRNA expression: 6.59
  α-Sma mRNA expression: 1.54

## CN(C)C[C@@H]1C(=O)O[C@H]2[C@H]1CC[C@@]1(C)C[C@]13CC[C@@](C)(O)[C@H]23 [Compound 22]
[2]; 4 μmol/kg i.g.
  BUN (urea level in serum): 9.39
  Scr (creatinine level in serum): 64.50
[2]; 4 μmol/kg
  Col1a1 mRNA expression: 7.30
  Havcr1 mRNA expression: 6.29
  Il1 mRNA expression: 2.77
  Il6 mRNA expression: 3.69
  Ngal mRNA expression: 16.14
  Tgfb1 mRNA expression: 1.44
  Tnf mRNA expression: 5.09
  α-Sma mRNA expression: 1.26

## CN(C)C[C@@H]1C(=O)O[C@H]2[C@H]1CC[C@@]1(C)C[C@]13CC[C@@](C)(O)[C@H]23 [Compound 23]
[1]; 20 nmol/kg i.g.
  MPO activity in colon tissue: 1.29 ± 0.11 U/g tissue
[1]; 20 nmol/kg/d i.g.
  Colon length: 6.51 ± 0.25 cm
[1]; 40 nmol/kg i.g.
  MPO activity in colon tissue: 0.99 ± 0.18 U/g tissue
[1]; 40 nmol/kg/d i.g.
  Colon length: 7.26 ± 0.26 cm
[1]; day 1, 20 nmol/kg i.g.
  DAI score: 0.00 ± 0.00
[1]; day 1, 40 nmol/kg i.g.
  DAI score: 0.00 ± 0.00
[1]; day 2, 20 nmol/kg i.g.
  DAI score: 0.27 ± 0.09
[1]; day 2, 40 nmol/kg i.g.
  DAI score: 0.16 ± 0.10
[1]; day 3, 20 nmol/kg i.g.
  DAI score: 0.63 ± 0.14
[1]; day 3, 40 nmol/kg i.g.
  DAI score: 0.54 ± 0.11
[1]; day 4, 20 nmol/kg i.g.
  DAI score: 0.96 ± 0.16
[1]; day 4, 40 nmol/kg i.g.
  DAI score: 1.20 ± 0.14
[1]; day 5, 20 nmol/kg i.g.
  DAI score: 1.02 ± 0.23
[1]; day 5, 40 nmol/kg i.g.
  DAI score: 0.61 ± 0.23
[1]; day 6, 20 nmol/kg i.g.
  DAI score: 1.56 ± 0.41
[1]; day 6, 40 nmol/kg i.g.
  DAI score: 1.07 ± 0.25
[1]; day 7, 20 nmol/kg i.g.
  DAI score: 2.28 ± 0.23
[1]; day 7, 40 nmol/kg i.g.
  DAI score: 1.38 ± 0.25
[1]; day 8, 20 nmol/kg i.g.
  DAI score: 2.46 ± 0.26
[1]; day 8, 40 nmol/kg i.g.
  DAI score: 1.57 ± 0.28
[1]; day 9, 20 nmol/kg i.g.
  DAI score: 1.31 ± 0.18
[1]; day 9, 40 nmol/kg i.g.
  DAI score: 1.05 ± 0.25
[1]; day 10, 20 nmol/kg i.g.
  DAI score: 0.80 ± 0.16
[1]; day 10, 40 nmol/kg i.g.
  DAI score: 0.35 ± 0.16
[2]; 0.4 μmol/kg i.g.
  BUN (urea level in serum): 17.63
  Scr (creatinine level in serum): 157.79
[2]; 4 μmol/kg i.g.
  BUN (urea level in serum): 9.45
  Scr (creatinine level in serum): 79.87
[2]; 0.4 μmol/kg
  Col1a1 mRNA expression: 11.79
  Havcr1 mRNA expression: 11.90
  Il1 mRNA expression: 5.32
  Il6 mRNA expression: 14.31
  Ngal mRNA expression: 35.77
  Tgfb1 mRNA expression: 1.76
  Tnf mRNA expression: 7.10
  α-Sma mRNA expression: 2.02
[2]; 4 μmol/kg
  Col1a1 mRNA expression: 8.27
  Havcr1 mRNA expression: 7.25
  Il1 mRNA expression: 3.55
  Il6 mRNA expression: 5.61
  Ngal mRNA expression: 19.42
  Tgfb1 mRNA expression: 1.53
  Tnf mRNA expression: 7.53
  α-Sma mRNA expression: 1.39

## C=C1C(=O)O[C@@H]2[C@H]3C(C)=CC[C@@]34O[C@@]4(C)CC[C@@H]12 [arglabin, reference compound]
[1]; 20 nmol/kg i.g.
  MPO activity in colon tissue: 0.95 ± 0.18 U/g tissue
[1]; 20 nmol/kg/d i.g.
  Colon length: 6.50 ± 0.15 cm
[1]; day 1, 20 nmol/kg i.g.
  DAI score: 0.00 ± 0.00
[1]; day 2, 20 nmol/kg i.g.
  DAI score: 0.36 ± 0.20
[1]; day 3, 20 nmol/kg i.g.
  DAI score: 0.65 ± 0.20
[1]; day 4, 20 nmol/kg i.g.
  DAI score: 1.17 ± 0.19
[1]; day 5, 20 nmol/kg i.g.
  DAI score: 1.39 ± 0.13
[1]; day 6, 20 nmol/kg i.g.
  DAI score: 1.62 ± 0.10
[1]; day 7, 20 nmol/kg i.g.
  DAI score: 2.07 ± 0.17
[1]; day 8, 20 nmol/kg i.g.
  DAI score: 2.32 ± 0.10
[1]; day 9, 20 nmol/kg i.g.
  DAI score: 1.45 ± 0.13
[1]; day 10, 20 nmol/kg i.g.
  DAI score: 0.92 ± 0.06
